In PubChem BioAssay (NCI):
Values joined by “and” are separate entries in the source; they are usually repeats but may differ in a detail not shown here. Equal entries are not always repeated.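 All cell lines were grown in 96-well plates and treated with compound for 48 hours. The concentration for 50% growth inhibition is given as GI50. The concentration for full growth arrest is given as TGI.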

The compounds below were run on BT-549 breast (assay: NCI-60 cell line screen, 48 h).

Row | SMILES | GI50 | TGI [µM]
1 | C=C1CC[C@@H]2[C@](C)(COC(C)=O)[C@H](OC(C)=O)CC[C@@]2(C)[C@@H]1CC(Nc1ccc(S(=O)(=O)Nc2ncccn2)cc1)C1=CCOC1=O (stereo not given in full) | 1.64 µM | 3.39
2 | COc1cc2c3c(n(CCCCOC(=O)C(Cl)(Cl)Cl)c(=O)c2cc1OC)-c1cc2c(cc1C3=O)OCO2 | 57.1 µM | > 100
3 | CC(C)CCCC(=O)CCCCCCC(=O)CCN(O)C(=O)C(N)CO (stereo not given) | – | 34.5
4 | CNc1nc(N)c(N=O)c(Nc2ccc(Br)cc2)n1 | – | > 100
5 | NCCCn1c2c(c3ccc([N+](=O)[O-])cc3c1=O)C(=O)c1cc(Br)ccc1-2 | 0.0314 µM and 0.0491 µM | 0.893
6 | CSc1nc2cc(S(=O)(=O)N3CCCCC3)ccc2s1 | – | > 100
7 | COc1ccc2nc3cc(Cl)ccc3c(NCCN)c2c1 | 1.81 µM | 3.39
8 | CCCCN1CSC(=S)N(Cc2ccccc2)C1 | – | > 100
9 | CC(C)(C)c1ccc(O)c(CN(Cc2cc(C(C)(C)C)ccc2O)c2ccccc2)c1 | – | 36.4

The compounds below were run on MDA-MB-435 (assay: NCI-60 cell line screen, 48 h).

Row | SMILES | GI50 | TGI [µM]
10 | COc1ccc(-n2cc(-c3cc(OC)c(OC)c(OC)c3)[nH]c2=O)cc1Cl | > 100 µM | > 100
11 | C=C1CC[C@@H]2[C@](C)(COC(C)=O)[C@H](OC(C)=O)CC[C@@]2(C)[C@@H]1CC(Nc1ccc(S(=O)(=O)Nc2ncccn2)cc1)C1=CCOC1=O (stereo not given in full) | 1.58 µM | 3.77
12 | C=C1C(=O)O[C@H]2[C@H]1CC/C(COC(=O)c1cc3ccccc3s1)=C\CC[C@@]1(C)O[C@@H]21 | 1.33 µM | 2.89
13 | COc1cc2c3c(n(CCCCOC(=O)C(Cl)(Cl)Cl)c(=O)c2cc1OC)-c1cc2c(cc1C3=O)OCO2 | > 100 µM | > 100
14 | COc1ccc(/C=C\c2cc(OC)c(OC)c(OC)c2)cc1OC(=O)NCCN(C)C | – | < 0.0001
15 | CC(C)CCCC(=O)CCCCCCC(=O)CCN(O)C(=O)C(N)CO (stereo not given) | – | 83.6
16 | Cc1ccc(NC(=O)NCCCOc2ccc(N3C(N)=NC(N)=NC3(C)C)cc2Cl)cc1S(=O)(=O)F | 4.46 µM | > 100
17 | CC[CH2][Sn]([Cl])([Cl])[CH2]CC.Oc1ccccc1C=NCCN=Cc1ccccc1O | 7.3 µM | 24.7
18 | COc1ccccc1Cn1cc2c(c1-c1ccccc1)CCc1cnoc1-2 | 0.279 µM | 1.44
19 | C/C=C(\C)CC/C=C/CO[Si](C)(C)C(C)(C)C | – | > 100
20 | CNc1nc(N)c(N=O)c(Nc2ccc(Br)cc2)n1 | – | > 100
21 | COc1ccc(-c2nnc(COc3ccc(NC(=O)Nc4ccc(Cl)c(C(F)(F)F)c4)cc3F)o2)cc1 | 3.8 µM | 36.9
22 | NCCCn1c2c(c3ccc([N+](=O)[O-])cc3c1=O)C(=O)c1cc(Br)ccc1-2 | 0.267 µM and 0.162 µM | 1.36
23 | CN1C(=O)c2ccccc2NC(=O)C12O[C@@H]2c1cccc(O)c1 (stereo not given in full) | – | > 100
24 | CSc1nc2cc(S(=O)(=O)N3CCCCC3)ccc2s1 | – | > 100
25 | COc1ncc(-c2ccc3ncnc(Nc4cccc(Cl)c4)c3c2)cc1NS(=O)(=O)CCN1CCOCC1 | 0.534 µM | > 100
26 | COc1ccc2nc3cc(Cl)ccc3c(NCCN)c2c1 | 1.76 µM | 3.36
27 | CCCCN1CSC(=S)N(Cc2ccccc2)C1 | – | > 100
28 | CC(C)(C)c1ccc(O)c(CN(Cc2cc(C(C)(C)C)ccc2O)c2ccccc2)c1 | – | 36.4

These compounds were tested on NCI-H226 lung (assay: NCI-60 cell line screen, 48 h).

Row | SMILES | TGI | GI50
29 | COc1ccc(/C(Cl)=C(\C=O)c2ccc([N+](=O)[O-])cc2)cc1 | 46.9 µM | –
30 | COc1ccc(-n2cc(-c3cc(OC)c(OC)c(OC)c3)[nH]c2=O)cc1Cl | > 100 µM | > 100 µM
31 | Cc1ccc(-c2cc(=O)c3cc(C)c(C)c(C(=O)O)c3o2)cc1C | > 100 µM | –
32 | O=C(/C=C/c1c(O)ccc2ccccc12)c1ccccc1 | > 100 µM | –
33 | Cc1nc2ccccc2c(=O)n1-c1ccccc1F | > 100 µM | –
34 | Fc1ccc(C2SCc3nc4ccccc4n32)cc1Cl (stereo not given) | 52 µM | –
35 | C=C1C(=O)O[C@H]2[C@H]1CC/C(COC(=O)c1cc3ccccc3s1)=C\CC[C@@]1(C)O[C@@H]21 | 4.63 µM | 2 µM
36 | COc1cc2c3c(n(CCCCOC(=O)C(Cl)(Cl)Cl)c(=O)c2cc1OC)-c1cc2c(cc1C3=O)OCO2 | > 100 µM | 67.6 µM
37 | CC(C)c1cc2c(O)c(c1)Cc1cc(C(C)C)cc(c1O)Cc1cc(C(C)C)cc(c1O)Cc1cc(C(C)C)cc(c1O)C2 | > 100 µM | –
38 | COc1ccc(/C=C\c2cc(OC)c(OC)c(OC)c2)cc1OC(=O)NCCN(C)C | 0.0464 µM | –
39 | CCCCOC(=O)NC(=O)c1cn(C2CCCCC2)c(=O)[nH]c1=O | 46.3 µM | –
40 | CC(C)CCCC(=O)CCCCCCC(=O)CCN(O)C(=O)C(N)CO (stereo not given) | 35.6 µM | –
41 | Cc1ccc(NC(=O)NCCCOc2ccc(N3C(N)=NC(N)=NC3(C)C)cc2Cl)cc1S(=O)(=O)F | > 100 µM | 58.1 µM
42 | CC[CH2][Sn]([Cl])([Cl])[CH2]CC.Oc1ccccc1C=NCCN=Cc1ccccc1O | 12.6 µM | 3.13 µM
43 | COc1cc2c(c(OC)c1)C1(CC(CC#N)C2)SCCS1 (stereo not given) | > 100 µM | –
44 | CCOC(=O)CCn1[nH]c(=O)c(Cl)c(Cl)c1=O | > 100 µM | –
45 | COc1ccccc1Cn1cc2c(c1-c1ccccc1)CCc1cnoc1-2 | > 100 µM | 8.52 µM

Row | SMILES | TGI | GI50
46 | C/C=C1/C(=C/c2[nH]c(/C=c3\[nH]/c(=C/C4=NC(=O)C(CC)=C4C)c(C)c3CCC(=O)O)c(CCC(=O)O)c2C)NC(=O)C1C (stereo not given) | > 150 µg/mL | > 150 µg/mL
47 | COc1cccc(/C=C2\C(=O)N(C(=O)c3ccc(NC(C)=O)cc3)N=C2C)c1 | > 100 µM | –
48 | C/C=C(\C)CC/C=C/CO[Si](C)(C)C(C)(C)C | > 100 µM | –
49 | N#CCc1ccc(C(C#N)/C(CCCC(=O)Nc2cccc([N+](=O)[O-])c2)=N/NC(N)=S)cc1 (stereo not given) | > 100 µM | –
50 | COC(C(O)c1ccc2c(c1)OCO2)P(=O)(c1ccccc1)c1ccccc1 (stereo not given) | > 100 µM | –
51 | COc1ccc(-c2nnc(COc3ccc(NC(=O)Nc4ccc(Cl)c(C(F)(F)F)c4)cc3F)o2)cc1 | 37.3 µM | 4.93 µM
52 | NCCCn1c2c(c3ccc([N+](=O)[O-])cc3c1=O)C(=O)c1cc(Br)ccc1-2 | 0.326 µM and 0.0684 µM | 0.0451 µM and 0.011 µM
53 | N#C/C(=C\c1cc2ccccc2c2ccccc12)c1ccccc1 | > 100 µM | –
54 | CCOc1ccc2c(c1)[n+]([O-])c(-c1nc3ccccc3s1)c(N)[n+]2[O-] | > 100 µM | –
55 | CSc1nc2cc(S(=O)(=O)N3CCCCC3)ccc2s1 | > 100 µM | –
56 | COc1ncc(-c2ccc3ncnc(Nc4cccc(Cl)c4)c3c2)cc1NS(=O)(=O)CCN1CCOCC1 | > 100 µM | 0.659 µM
57 | COc1ccc2nc3cc(Cl)ccc3c(NCCN)c2c1 | > 100 µM | 4.75 µM
58 | CCCCN1CSC(=S)N(Cc2ccccc2)C1 | > 100 µM | –
59 | CC(=O)N1C/C(=C\c2ccc(N(C)C)cc2)C(=O)/C(=C/c2ccc(N(C)C)cc2)C1 | > 100 µM | –
60 | COC1=CC2(C=CC1=O)c1cc(OC)c(OC)cc1CCN2C(=O)c1ccccc1 (stereo not given) | > 100 µM | –
61 | Cc1[nH]c2ccccc2c1C1Cc2ccccc2N1C(=O)/C(Cl)=C/c1ccccc1 (stereo not given) | > 100 µM | –

The compounds below were run on HL-60(TB) leukemia (assay: NCI-60 cell line screen, 48 h).

Row | SMILES | TGI [µM] | GI50 [µM]
62 | COc1ccc(/C(Cl)=C(\C=O)c2ccc([N+](=O)[O-])cc2)cc1 | 10.7 | –
63 | COc1ccc(-n2cc(-c3cc(OC)c(OC)c(OC)c3)[nH]c2=O)cc1Cl | > 100 | > 100
64 | Cc1ccc(-c2cc(=O)c3cc(C)c(C)c(C(=O)O)c3o2)cc1C | > 100 | –
65 | O=C(/C=C/c1c(O)ccc2ccccc12)c1ccccc1 | > 100 | –
66 | Cc1nc2ccccc2c(=O)n1-c1ccccc1F | > 100 | –
67 | Fc1ccc(C2SCc3nc4ccccc4n32)cc1Cl (stereo not given) | 47.6 | –
68 | C=C1CC[C@@H]2[C@](C)(COC(C)=O)[C@H](OC(C)=O)CC[C@@]2(C)[C@@H]1CC(Nc1ccc(S(=O)(=O)Nc2ncccn2)cc1)C1=CCOC1=O (stereo not given in full) | 3.64 | 1.3
69 | CC1=N/C(=C\c2cccc([N+](=O)[O-])c2)C(=O)O1 | > 100 | –
70 | C=C1C(=O)O[C@H]2[C@H]1CC/C(COC(=O)c1cc3ccccc3s1)=C\CC[C@@]1(C)O[C@@H]21 | 5.53 | 1.89
71 | CC(C)N1CN(C(C(=O)N[C@@H]2C(=O)N3C2SC(C)(C)C3C(=O)O)c2ccccc2)CSC1=S (stereo not given in full) | > 100 | –
